In ChEMBL document CHEMBL6127021, “Inhibition of protein tyrosine phosphatase 1B by serratane triterpenes from Huperzia serrata and their molecular docking study” (Bioorg Med Chem Lett, 2024):

Columns and labels:
[1] = target: T1, Tyrosine-protein phosphatase non-receptor type 1 (Homo sapiens, UniProt P18031); assay: Inhibition of recombinant human PTP1B using p-NPP as substrate incubated for 30 mins by absorbance based microplate reader
T1 sequence (P18031 whole entry): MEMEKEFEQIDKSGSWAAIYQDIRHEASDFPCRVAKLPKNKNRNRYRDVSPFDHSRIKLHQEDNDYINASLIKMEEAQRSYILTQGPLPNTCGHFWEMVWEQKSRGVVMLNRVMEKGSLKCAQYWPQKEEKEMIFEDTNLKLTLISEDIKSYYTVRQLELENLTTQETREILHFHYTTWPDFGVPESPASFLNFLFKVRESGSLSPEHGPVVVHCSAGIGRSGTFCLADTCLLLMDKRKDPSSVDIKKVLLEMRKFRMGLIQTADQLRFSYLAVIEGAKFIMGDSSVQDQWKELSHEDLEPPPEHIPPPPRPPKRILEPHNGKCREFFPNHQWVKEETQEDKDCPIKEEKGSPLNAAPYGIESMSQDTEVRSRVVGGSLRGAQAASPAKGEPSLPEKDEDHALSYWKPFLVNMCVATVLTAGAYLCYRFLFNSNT

[2] = target: T1, Tyrosine-protein phosphatase non-receptor type 1; assay: Competitive inhibition of recombinant human PTP1B using p-NPP as substrate assessed as inhibition constant incubated for 30 mins by Lineweaver-Burk plot analysis

IC50 [1] [µM] | Ki [2] [µM] | Compound
4.65 | 11.9 | CC1(C)[C@@H](O)CC[C@@]2(C)[C@H]1CC[C@@]1(C)CC3=CC[C@H]4C(C)(C)[C@H](O)CC[C@]4(C)[C@H]3CC[C@@H]12
7.28 | 12.2 | CC1(C)[C@@H](O)CC[C@@]2(C)[C@H]1CC[C@@]1(C)CC3=CC[C@H]4C(C)(C)[C@@H](O)CC[C@]4(C)[C@H]3CC[C@@H]12
> 30 | – | CC(=O)O[C@H]1CC[C@@]2(C)[C@@H](CC[C@]3(O)C[C@]4(C)CC[C@H]5C(C)(C)[C@@H](O)CC[C@]5(C)[C@H]4CC[C@@H]32)C1(C)C
> 30 | – | CC(=O)O[C@H]1CC[C@@]2(C)[C@@H](CC[C@@]3(C)CC4=CC[C@H]5C(C)(C)[C@@H](O)CC[C@]5(C)[C@H]4CC[C@@H]32)C1(C)C
